Assay results: patent US12692232B2, “Indole carboxamide compound, preparation therefor and use thereof” (NANJING RUISHUNING MEDICAL TECHNOLOGY CO., LTD., priority 2021, dated 2026)

Biological target: T1, TRPC6 channel (Homo sapiens, UniProt Q9Y210)
T1 sequence (Q9Y210 1-931): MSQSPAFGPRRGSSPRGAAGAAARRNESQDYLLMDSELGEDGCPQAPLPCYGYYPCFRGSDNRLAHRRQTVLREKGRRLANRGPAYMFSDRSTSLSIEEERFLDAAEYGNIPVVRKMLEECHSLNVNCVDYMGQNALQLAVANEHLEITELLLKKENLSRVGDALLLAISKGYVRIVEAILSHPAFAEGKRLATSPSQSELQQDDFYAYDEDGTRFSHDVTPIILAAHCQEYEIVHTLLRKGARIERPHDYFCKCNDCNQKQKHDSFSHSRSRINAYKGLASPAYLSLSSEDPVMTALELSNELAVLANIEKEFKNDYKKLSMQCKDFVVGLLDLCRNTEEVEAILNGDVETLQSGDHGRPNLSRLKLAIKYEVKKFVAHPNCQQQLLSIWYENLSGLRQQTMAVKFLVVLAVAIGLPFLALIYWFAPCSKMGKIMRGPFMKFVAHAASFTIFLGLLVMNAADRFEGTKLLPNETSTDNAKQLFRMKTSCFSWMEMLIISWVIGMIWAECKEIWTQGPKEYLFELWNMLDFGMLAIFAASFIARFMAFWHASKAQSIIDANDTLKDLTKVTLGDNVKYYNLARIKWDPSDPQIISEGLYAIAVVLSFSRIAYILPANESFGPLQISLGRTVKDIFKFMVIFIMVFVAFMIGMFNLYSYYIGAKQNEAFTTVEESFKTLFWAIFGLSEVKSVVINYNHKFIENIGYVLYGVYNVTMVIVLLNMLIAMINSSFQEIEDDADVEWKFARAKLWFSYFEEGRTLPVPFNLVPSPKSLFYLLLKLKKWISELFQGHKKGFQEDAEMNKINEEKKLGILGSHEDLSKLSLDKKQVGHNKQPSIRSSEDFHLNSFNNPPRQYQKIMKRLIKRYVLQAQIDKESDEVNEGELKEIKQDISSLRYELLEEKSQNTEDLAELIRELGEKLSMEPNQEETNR
Test: Inhibition of TRPC6 channel-mediated Ca2+ entry in HEK293hTRPC6 cells (Fura-2/AM, single concentration)
Format: cell-based
Set-up: expressed in transfected cells; host or cells: HEK293 (lentiviral transduction, puromycin selection)
Settings: compound 80 μM, OAG 80 μM; for inhibition at 80 µM: read-out: inhibition of Ca2+ entry into the cells via TRPC6 channels compared with the solvent control group
Protocol: The inhibitory effect of the compounds of the present invention (as exemplified by Compound 1-1 obtained in Example 1) on TRPC6 channel-mediated Ca^2+ entry was determined using HEK293hTRPC6 as a tool cell overexpressing TRPC6 protein. The method was as follows:
Establishment of HEK293hTRPC6, a tool cell overexpressing TRPC6 protein: human embryonic kidney cells HEK293 were placed in DMEM culture medium (containing 10% inactivated fetal bovine serum, 100 U-mL^−1 penicillin, and 100 mg-L^−1 streptomycin) and cultured at 37° C. in a 5% CO2 incubator. Cells in the logarithmic growth phase were harvested at 50% and incubated with 25 μL of LV105-TRPC6 lentiviral particle suspension for 24 hours, and then the medium was changed. The experiment included a negative control group (no-load lentivirus) and a blank control group. The medium containing 2 μg/mL puromycin was changed after 48 h of infection until the cells in the blank group died. Western Blot assay was performed to detect the expression of TRPC6 protein in the cells to verify the successful construction of HEK293hTRPC6 cell.
Determination of the effect of the compounds on changes in intracellular calcium ion concentration ([Ca^2+]i) in HEK293hTRPC6 cells: HEK293hTRPC6 cell suspension was added to a 24-well plate with a coverslip and incubated at 37° C. in a 5% CO2 incubator for 24 h. The cell crawls were then removed and placed in the fluorescent dye Fura-2/AM, and incubated for 20 min at room temperature away from light. The slides were placed in the center of the bath, perfused with calcium-free Tyrode's solution for 5 min and fixed on the stage of an inverted fluorescence microscope. […] Fluorescence intensity was measured at different excitation wavelengths (340 nm, 380 nm) using a TILL Ion Imaging system (TILLvisION), and the value of fluorescence intensity emitted by intracellular fluorescent probe at different excitation wavelengths was substituted into the formula: [Ca^2+]i=Kd×β×(R−Rmin)/[…]. In the formula, R represents the experimentally determined fluorescence ratio (F340/F380); Kd represents the dissociation constant for the reaction of Fura-2/AM with Ca^2+, which is 386 nmol/L under physiological conditions; Rmax represents the F340/F380 when Ca^2+ is saturated (all Fura-2/AM is bound to Ca^2+); Rmin represents the F340/F380 when there is no Ca^2+; and β represents the ratio of fluorescence intensities at 380 nm in the absence of Ca^2+ and when Ca^2+ is saturated.
Experimental results: the amount of TRPC6-mediated Ca^2+ entry under conditions of open TRPC6 channels and the presence of extracellular Ca^2+ was measured, and the actual biological activity of the compounds was assessed by comparison with the solvent control.

SMILES	amount of TRPC6-mediated Ca2+ entry	inhibition at 80 µM [%]
Cn1c(C(=O)NCCC(=O)O)cc2ccccc21 [3-[(1-methyl-1H-indole-2-carbonyl)amino]propionic acid, reference compound]	0.10±0.01	53.9
CC(=O)OCCCNC(=O)c1c(C=O)c2ccccc2n1C [compound 1-1, propyl 3-[(3-formyl-1-methyl-1H-indole-2-carbonyl)amino]acetate]	0.06±0.01	79.9
